Results taken from ChEMBL document CHEMBL4152375, “Compromising the plasma membrane as a secondary target in photodynamic therapy-induced necrosis” (Bioorg Med Chem, 2018).
Activity calls are given as the source filed them. No cut-off for these calls is given here.

What was measured:
CHO [1] = assay: Induction of plasma membrane-mediated necrosis in EthD1-labelled CHO cells at 1 uM incubated for two hrs at 4 degC followed by compound washout and subsequent 150W irradiation for 30 secs by fluorescence microscopic analysis; format: functional, cell-based; details: Cricetulus griseus
[2] = Dark toxicity in CHO cells at 1 uM incubated for overnight followed by compound washout by fluorescence microscopic analysis; format: cell-based, Cricetulus griseus; details: chinese hamster
[3] = Drug uptake in endosome of CHO cells at 1 uM incubated for overnight followed by compound washout measured by fluorescence microscopic analysis; format: ADME, subcellular, Cricetulus griseus; details: chinese hamster
CHO [4] = assay: Induction of plasma membrane-mediated necrosis in EthD1-labelled CHO cells assessed as swelling of nuclei at 1 uM incubated for overnight followed by compound washout and subsequent 150W irradiation for 30 secs by fluorescence microscopic analysis; format: functional, cell-based; details: Cricetulus griseus
CHO [5] = assay: Induction of plasma membrane-mediated necrosis in CHO cells assessed as swelling of nuclei at 1 uM incubated for overnight followed by compound washout and subsequent 150W irradiation for 30 secs by fluorescence microscopic analysis; format: functional, cell-based; details: Cricetulus griseus
[6] = Drug uptake in endosome of fluorescein-dextran-labelled CHO cells at 1 uM incubated for overnight followed by compound washout measured by fluorescence microscopic analysis; format: ADME, subcellular, Cricetulus griseus; details: chinese hamster
CHO [7] = assay: Induction of plasma membrane-mediated necrosis in CHO cells at 1 uM incubated for overnight followed by compound washout with PBS 5% FBS and subsequent 150W irradiation for 30 secs by fluorescence microscopic analysis; format: functional, cell-based; details: Cricetulus griseus
[8] = Drug uptake in lysosome of fluorescein-dextran-labelled CHO cells at 1 uM incubated for overnight followed by compound washout measured by fluorescence microscopic analysis; format: ADME, subcellular, Cricetulus griseus; details: chinese hamster

Drug uptake [3]: Active | Drug uptake [6]: Active | Drug uptake [8]: Active
Structure (SMILES): CN1CC2c3nc(c(-c4c(F)c(F)c(S[C@@H]5O[C@H](CO)[C@@H](O)[C@H](O)[C@H]5O)c(F)c4F)c4ccc([nH]4)c(-c4c(F)c(F)c(S[C@@H]5O[C@H](CO)[C@@H](O)[C@H](O)[C@H]5O)c(F)c4F)c4nc(c(-c5c(F)c(F)c(S[C@@H]6O[C@H](CO)[C@@H](O)[C@H](O)[C@H]6O)c(F)c5F)c5ccc([nH]5)c3-c3c(F)c(F)c(S[C@@H]5O[C@H](CO)[C@@H](O)[C@H](O)[C@H]5O)c(F)c3F)C=C4)C2C1 (stereo partly drawn)
Activity (CHO [1]): Active | Activity [2]: Non-Toxic | Activity (CHO [4]): Active | Activity (CHO [5]): Active | Activity (CHO [7]): inactive
